In EP2951180B1, “2,6,7,8 SUBSTITUTED PURINES AS HDM2 INHIBITORS” (Merck Sharp & Dohme Corp., priority 2013, dated 2014):
Where two headings read alike, the source gives them in different places.

Molecular target: T1, HDM2 (Homo sapiens, UniProt Q00987)
T1 construct: Thioredoxin (N); made in house; host or cells: E. coli strain BL21(DE3)Rosetta
Experiment: HDM2 FRET assay (inhibition of binding of FITC labeled p53-pocket peptide to HDM2)
Details: read-out: FRET IC50
Outline: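 Compounds were tested in 10-point serial dilution against 0.5 nM recombinant HDM2 binding 3 nM fluorescein-labeled p53-pocket peptide. Detection used 0.25 nM terbium cryptate anti-6xHis antibody in PBS buffer containing 0.01% BSA and 0.01% Tween-20.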

[1] = 0.5 nM HDM2 (residues 17 to 125), 3nM peptide, two hour incubation at room temperature

T1 sequence (Q00987 17-125): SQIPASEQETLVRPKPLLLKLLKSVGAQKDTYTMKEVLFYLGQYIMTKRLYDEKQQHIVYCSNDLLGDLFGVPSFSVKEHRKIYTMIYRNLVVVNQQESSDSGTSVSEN

In the case of `C[C@@H](Nc1nc(-c2noc(=O)[nH]2)nc2nc(N3CCCC3C3CCC3)n(C[C@H]3CC[C@H](C)CC3)c12)C1CCC1` (stereo partly drawn) [Example 11.38, 3-(6-{[(1R)-1-cyclobutylethyl]amino}-8-(2-cyclobutylpyrrolidin-1-yl)-7-[(trans-4-methylcyclohexyl)methyl]-7H-purin-2-yl)-1,2,4-oxadiazol-5(2H)-one], the IC50 (Table 11) is reported as 0.00486 µM.
With `C[C@H]1CC[C@H](Cn2c(N3CCC[C@H]3CF)nc3nc(-c4n[nH]c(=O)o4)nc(-c4cncc(Cl)c4)c32)CC1` [Example 16.104, 5-{6-(5-chloropyridin-3-yl)-8-[(2S)-2-(fluoromethyl)pyrrolidin-1-yl]-7-[(trans-4-methylcyclohexyl)methyl]-7H-purin-2-yl}-1,3,4-oxadiazol-2(3H)-one] the IC50 [1] was 0.00391 µM.
For `C[C@@H](Nc1nc(C(=O)O)nc2nc(C3CCCC3c3ccccc3)n(Cc3ccc(C(F)(F)F)cc3)c12)C1CCC1` (single isomer, unassigned) [Example 21.5], the IC50 (Table 21) was 0.0265 µM.
With `Cc1cccc(-c2nc3nc(C(=O)O)nc(N[C@H](CCCN4CCN(C)CC4)C4CCC4)c3n2Cc2ccc(C(F)(F)F)cc2)c1` [Example 7.10, 6-{[(1R)-1-cyclobutyl-4-(4-methylpiperazin-1-yl)butyl]amino}-8-(3-methylphenyl)-7-[4-(trifluoromethyl)benzyl]-7H-purine-2-carboxylic acid] the IC50 (Table 7) was 0.0943 µM.
Compound `Cc1nonc1CN(C)c1nc2nc(-c3noc(=O)[nH]3)nc(N[C@H](C)C3CCC3)c2n1C[C@H]1CC[C@H](C)CC1` [Example 11.63, 3-(6-{[(1R)-1-cyclobutylethyl]amino}-7-[(trans-4-methylcyclohexyl)methyl]-8-{methyl[(4-methyl-1,2,5-oxadiazol-3-yl)methyl]amino}-7H-purin-2-yl)-1,2,4-oxadiazol-5(4H)-one] has an IC50 (Table 11) of 0.00371 µM.
For `C[C@@H](Nc1nc(C(=O)O)nc2nc(N3CCOC(C(F)(F)F)C3)n(Cc3ccc(C(F)(F)F)cc3)c12)C1CCC1` (stereo partly drawn) [Example 9.23, 6-{[(1R)-1-cyclobutylethyl]amino}-7-[4-(trifluoromethyl)benzyl]-8-[2-(trifluoromethyl)morpholin-4-yl]-7H-purine-2-carboxylic acid], the IC50 (Table 9) was 0.0252 µM.
`CC(C)[C@@H]1COCCN1c1nc2nc(-c3n[nH]c(=O)o3)nc(-c3cccc(Cl)c3)c2n1C[C@H]1CC[C@H](C)CC1` [Example 16.75, 5-{6-(3-chlorophenyl)-7-[(trans-4-methylcyclohexyl)methyl]-8-[(3R)-3-(1-methylethyl)morpholin-4-yl]-7H-purin-2-yl}-1,3,4-oxadiazol-2(3H)-one] gave an IC50 [1] of 0.0147 µM.
In the case of `Cc1cccc(-c2nc3nc(C(=O)O)nc(NC4CCCC4C)c3n2Cc2ccc(C(F)(F)F)cc2)c1` (stereo not drawn) [Example 6.21, 6-[(2-methylcyclopentyl)amino]-8-(3-methylphenyl)-7-[4-(trifluoromethyl)benzyl]-7H-purine-2-carboxylic acid], the IC50 (Table 6) is reported as 0.422 µM.
With `CCCN(C)c1nc2nc(-c3noc(=O)[nH]3)nc(N[C@H](C)C3CCC3)c2n1C[C@H]1CC[C@H](C)CC1` [Example 11.44, 3-(6-{[(1R)-1-cyclobutylethyl]amino}-7-[(trans-4-methylcyclohexyl)methyl]-8-[methyl(propyl)amino]-7H-purin-2-yl)-1,2,4-oxadiazol-5(2H)-one] the IC50 (Table 11) was 0.00997 µM.
Work on `Cc1cccc(-c2nc3nc(C(=O)O)nc(N[C@H](C)C4CCCCC4)c3n2Cc2ccc(Cl)cc2)c1` [Example 6.4, 7-(4-chlorobenzyl)-6-{[(1R)-1-cyclohexylethyl]amino}-8-(3-methylphenyl)-7H-purine-2-carboxylic acid] yielded an IC50 (Table 6) of 1.03 µM.
`C[C@@H](Nc1nc(C(=O)O)nc2nc(N(C)c3ccccc3)n(Cc3ccc(C(F)(F)F)cc3)c12)C1CCC1` [Example 9.2, 6-{[(1R)-1-cyclobutylethyl]amino}-8-[methyl(phenyl)amino]-7-[4-(trifluoromethyl)benzyl]-7H-purine-2-carboxylic acid] was tested, and the IC50 (Table 9) was 0.0207 µM.
Compound `C[C@H]1CC[C@H](Cn2c(N3CCOCC34CC4)nc3nc(-c4n[nH]c(=O)o4)nc(-c4cccc(Cl)c4)c32)CC1` [Example 16.88, 5-[6-(3-chlorophenyl)-7-[(trans-4-methylcyclohexyl)methyl]-8-(7-oxa-4-azaspiro[2.5]oct-4-yl)-7H-purin-2-yl]-1,3,4-oxadiazol-2(3H)-one] has an IC50 [1] of 0.0391 µM.
With `CC(C)c1ccnc(-c2nc3nc(C(=O)O)nc(N[C@H](C)C4CCC4)c3n2C[C@H]2CC[C@H](CF)CC2)c1` [Example 18.10, 6-(((R)-1-cyclobutylethyl)amino)-7-((trans-4-(fluoromethyl)cyclohexyl)methyl)-8-(4-isopropylpyridin-2-yl)-7H-purine-2-carboxylic acid] the IC50 (Table 18) was 0.00938 µM.
Work on `CC(C)c1ccnc(-c2nc3nc(C(=O)O)nc(N[C@H](c4ccccc4)C4CCC4)c3n2Cc2ccc(C(F)(F)F)cc2)c1` [Example 6.58, 6-{[(S)-cyclobutyl(phenyl)methyl]amino}-8-[4-(1-methylethyl)pyridin-2-yl]-7-[4-(trifluoromethyl)benzyl]-7H-purine-2-carboxylic acid] yielded an IC50 (Table 6) of 0.0492 µM.
`CC(C)CC(=O)N(C)c1nc2nc(C(=O)O)nc(N[C@H](C)C3CCC3)c2n1Cc1ccc(C(F)(F)F)cc1` [Example 10.3, (R)-6-((1-cyclobutylethyl)amino)-8-(N,3-dimethylbutanamido)-7-(4-(trifluoromethyl)benzyl)-7H-purine-2-carboxylic acid] showed an IC50 (Table 10) of 0.0698 µM.
`C[C@@H](Nc1nc(-c2noc(=O)[nH]2)nc2nc(N3CCCCC34CC4)n(Cc3ccc(C(F)(F)F)cc3)c12)C1CCC1` [Example 9.85, 3-{8-(4-azaspiro[2.5]oct-4-yl)-6-{[(1R)-1-cyclobutylethyl]amino}-7-[4-(trifluoromethyl)benzyl]-7H-purin-2-yl}-1,2,4-oxadiazol-5(4H)-one] showed an IC50 (Table 9) of 0.00984 µM.
In the case of `CCN(c1nc(-c2noc(=O)[nH]2)nc2nc(-c3cc(C(C)C)ccn3)n(C[C@H]3CC[C@H](C)CC3)c12)[C@H](C)C1CCC1` [Example 15.24, 3-(6-{[(1R)-1-cyclobutylethyl](ethyl)amino}-7-[(trans-4-methylcyclohexyl)methyl]-8-[4-(1-methylethyl)pyridin-2-yl]-7H-purin-2-yl)-1,2,4-oxadiazol-5(4H)-one], the IC50 [1] is reported as 0.716 µM.
`C[C@@H](Nc1nc(-c2noc(=O)[nH]2)nc2nc(C3CCCCC3c3ccccc3)n(C[C@H]3CC[C@H](C)CC3)c12)C1CCC1` (single isomer, unassigned) [Example 21.26] was tested, and the IC50 (Table 21) was 0.0216 µM.
`C[C@@H](Nc1nc(-c2noc(=O)[nH]2)nc2nc(N(C)Cc3cnccn3)n(C[C@H]3CC[C@H](C)CC3)c12)C1CCC1` [Example 11.72, 3-(6-{[(1R)-1-cyclobutylethyl]amino}-7-[(trans-4-methylcyclohexyl)methyl]-8-[methyl(pyrazin-2-ylmethyl)amino]-7H-purin-2-yl)-1,2,4-oxadiazol-5(2H)-one] gave an IC50 (Table 11) of 0.00598 µM.
In the case of `Cc1nonc1C1CCCN1c1nc2nc(-c3noc(=O)[nH]3)nc(N[C@H](C)C3CCC3)c2n1C[C@H]1CC[C@H](C)CC1` (stereo partly drawn) [Example 11.108, 3-(6-{[(1R)-1-cyclobutylethyl]amino}-7-[(trans-4-methylcyclohexyl)methyl]-8-[2-(4-methyl-1,2,5-oxadiazol-3-yl)pyrrolidin-1-yl]-7H-purin-2-yl)-1,2,4-oxadiazol-5(2H)-one], the IC50 (Table 11) is reported as 0.0016 µM.
Work on `C[C@@H](Nc1nc(C(=O)O)nc2nc(N3CCCCC3Cc3cccc(C(F)(F)F)c3)n(Cc3ccc(C(F)(F)F)cc3)c12)C1CCC1` (stereo partly drawn) [Example 9.68, 6-{[(1R)-1-cyclobutylethyl]amino}-7-[4-(trifluoromethyl)benzyl]-8-{2-[3-(trifluoromethyl)benzyl]piperidin-1-yl}-7H-purine-2-carboxylic acid] yielded an IC50 (Table 9) of 0.11 µM.
`Cc1cccc(-c2nc(-c3noc(=O)[nH]3)nc3nc(-c4cc(C(C)C)ccn4)n(C[C@H]4CC[C@H](C)CC4)c23)c1` [Example 16.15, 3-{7-[(trans-4-methylcyclohexyl)methyl]-8-[4-(1-methylethyl)pyridin-2-yl]-6-(3-methylphenyl)-7H-purin-2-yl}-1,2,4-oxadiazol-5(4H)-one] gave an IC50 [1] of 0.03 µM.
`Cc1cccc(-c2nc3nc(C(=O)O)nc(OCC4CCC4)c3n2Cc2ccc(C(F)(F)F)cc2)c1` [Example 17.3, 6-(cyclobutylmethoxy)-8-(3-methylphenyl)-7-[4-(trifluoromethyl)benzyl]-7H-purine-2-carboxylic acid] gave an IC50 [1] of 0.192 µM.
`COC1(c2nc3nc(-c4noc(=O)[nH]4)nc(-c4cncc(Cl)c4)c3n2C[C@H]2CC[C@H](C)CC2)CCC1` [Example 23.62, 3-{6-(5-chloropyridin-3-yl)-8-(1-methoxycyclobutyl)-7-[(trans-4-methylcyclohexyl)methyl] -7H-purin-2-yl}-1,2,4-oxadiazol-5(4H)-one] gave an IC50 (Table 23) of 0.0131 µM.
`C[C@@H](Nc1nc(-c2noc(=O)[nH]2)nc2nc(C3(c4ccccc4)CCC3)n(C[C@H]3CC[C@H](C)CC3)c12)C1CCC1` [Example 20.8, 3-[6-{[(1R)-1-cyclobutylethyl]amino}-7-[(trans-4-methylcyclohexyl)methyl]-8-(1-phenylcyclobutyl)-7H-purin-2-yl]-1,2,4-oxadiazol-5(4H)-one] gave an IC50 (Table 20) of 0.00596 µM.
`Cc1cccc(-c2nc3nc(C(=O)O)nc(OCC4CC4)c3n2Cc2ccc(C(F)(F)F)cc2)c1` [Example 17.2, 6-(cyclopropylmethoxy)-8-(3-methylphenyl)-7-[4-(trifluoromethyl)benzyl]-7H-purine-2-carboxylic acid] showed an IC50 [1] of 0.814 µM.
`C[C@@H](Nc1nc(-c2noc(=O)[nH]2)nc2nc(NCc3c[nH]nc3-c3ccccc3)n(C[C@H]3CC[C@H](C)CC3)c12)C1CCC1` [Example 11.112, 3-(6-{[(1R)-1-cyclobutylethyl]amino}-7-[(trans-4-methylcyclohexyl)methyl]-8-{[(3-phenyl-1H-pyrazol-4-yl)methyl]amino}-7H-purin-2-yl)-1,2,4-oxadiazol-5(2H)-one] showed an IC50 (Table 11) of 0.215 µM.
